{"source": "patent US20080028486A1", "about": "“Aluminium Tolerant Barley” (COMMONWEALTH SCIENTIFIC AND INDUSTRIAL RESEARCH ORGANISATION, priority 2004, published 2008)", "key": {"[1]": {"tested_on": "root apices of transgenic barley expressing ALMT1", "test": "Malate efflux from excised root apices of transgenic barley expressing ALMT1", "assay_type": "cell-based, Hordeum vulgare", "settings": "for activation of malate efflux: 50 μM La or Er in basal solution", "experimental": "FIG. 4—Properties of malate efflux from root apices of transgenic barley expressing ALMT1. • (A) Effect of Al concentration on malate efflux (nmoles/h/apex). Excised root apices from ALMT1 line 5 (solid circles) were exposed to Al treatments from 0 to 50 μM in basal solution for 1 h. Error bars show ±standard errors of the means (n=3). The solid squares show efflux from root apices of the control line transformed with the empty vector. • (B) Effects of niflumic acid (nif; 0 to 100 μM), La (50 μM), Er (50 μM) and basal solution (0.2 mM CaCl2 pH 4.3) on malate efflux from root apices of line 5. Excised root apices from line 5 were exposed to the various treatments in basal solution for 1 h. Error bars show ±standard errors of the means (n=3).\nMalate efflux from root segments was assayed using a modification of methods described by Ryan et al. (1995a). Unless stated otherwise, 4 root apices 3 mm long were incubated with shaking in 1 ml of 0.2 mM CaCl2 (pH 4.3) for approximately 1 h. The apices were then rinsed with the CaCl2 solution three times and replaced with 1 ml of the same solution (control) or 1 ml of treatment solution (0.2 mM CaCl2 with added treatment at pH 4.3). After an incubation that typically lasted for 1 h, the solution was removed, dried and the residue re-suspended in 200 μl of buffer used for the spectrographic assay of malate (0.25 M glycine, 0.20 M hydrazine and 2.7 mM NAD adjusted to pH 9). A subsample (100 μl) was transferred to a micro-cuvette and the increase in absorbance at 340 nm measured 6 min after addition of 1 μl of malate dehydrogenase (5 mg/ml) was used to calculate the amount of malate by comparison to a standard curve."}, "[2]": {"tested_on": "root apices of transgenic barley expressing ALMT1", "test": "K+ efflux from excised root apices of transgenic barley line 5", "assay_type": "cell-based, Hordeum vulgare", "settings": "line 5 excised apices, 50 μM Al, mean ±SE, n=4", "experimental": "Al-activated malate efflux from root apices of transgenic barley expressing ALMT1 was accompanied by the efflux of K^+. Net K^+ effluxes from excised apices of line 5 were calculated by subtracting corresponding values obtained for the vector only control line resulting in an efflux of 0.4±0.3 nmoles K^+/h/apex in the absence of Al and an efflux of 5.2±1.0 nmoles K^+/h/apex in the presence of 50 μM Al (means ±SE; n=4)."}, "[3]": {"tested_on": "transgenic barley T0 lines 4, 5 and 6 expressing ALMT1", "test": "Al tolerance assay: root elongation in hydroponic culture, ALMT1 transgenic barley", "assay_type": "in vivo, Hordeum vulgare", "experimental": "(§1) Plants in hydroponic culture were assessed for Al tolerance using a hydroponic solution described as follows, supplemented with a range of AlCl3 concentrations. The hydroponic solution was made with distilled or deionised water containing 500 μM KNO3, 500 μM CaCl2, 500 μM NH4NO3, 150 μM MgSO4, 100 μM KH2PO4, 2 μM Fe:EDTA, 11 μM H3BO3, 2 μM MnCl2, 0.35 μM ZnCl2 and 0.2 μM CuCl2 adjusted to pH 5.5. The Al screening solution was the same solution as above except it contained 10 μM KH2PO4 instead of 100 μM, 2 μM FeCl3 instead of Fe:EDTA and was adjusted to pH 4.3 instead of 5.5, and was supplemented with AlCl3 at the stated concentration. The plants were grown using these solutions at a temperature of 18-25° C., usually at 20° C.\n(§2) Al tolerance was assessed by determining root elongation of plants grown in hydroponic culture in the continual presence of added Al. The three barley T0 lines that were transformed with ALMT1 and expressing the transgene in the roots were tested in a range of Al levels. […] The ALMT1 gene therefore provided a dramatic enhancement of Al tolerance on the barley plants, to a level that has not been seen previously."}, "[4]": {"tested_on": "control barley plants (wild type and vector only, cv Golden Promise)", "test": "Al tolerance assay: root elongation in hydroponic culture, control plants", "assay_type": "in vivo, Hordeum vulgare", "experimental": "as §1, §2"}}}
{"smiles": "O=C(O)c1cccnc1Nc1cccc(C(F)(F)F)c1", "note": "[niflumic acid]", "values": [{"measurement": "effect on malate efflux", "setting": "[1]; line 5 root apices, niflumic acid 0 to 100 μM, basal solution, 1 h", "result": "inhibited"}]}
{"smiles": "[La]", "note": "[Lanthanum]", "values": [{"measurement": "activation of malate efflux", "setting": "[1]; line 5 root apices, 1 h", "result": "ineffective in activating malate efflux"}]}
{"smiles": "[Er]", "note": "[erbium]", "values": [{"measurement": "activation of malate efflux", "setting": "[1]; line 5 root apices, 1 h", "result": "capable of eliciting malate efflux, albeit at a lower level than observed for Al"}]}
{"smiles": "[Cl][Al]([Cl])[Cl]", "note": "[AlCl3, aluminium chloride]", "values": [{"measurement": "net K+ efflux (vector only control values subtracted)", "setting": "[2]", "result": "5.2±1.0", "unit": "nmoles K+/h/apex"}, {"measurement": "inhibition of root growth", "setting": "[3]; ALMT1 line 5, hydroponic culture, 20M AlCl3 as printed", "result": "did not show significant inhibition of root growth"}, {"measurement": "inhibition of root growth", "setting": "[3]; ALMT1 transgenic plants, hydroponic culture, 2, 6 or 12 μM AlCl3", "result": "did not exhibit any significant inhibition of root growth"}, {"measurement": "rate of malate efflux from root apices", "setting": "[1]; Al-activated efflux, transgenic barley", "result": "approx. 1 nmole/apex/h"}, {"measurement": "added Al concentration up to which malate efflux increases before starting to level off", "setting": "[1]; line 5 root apices, Al 0 to 50 μM in basal solution (0.2 mM CaCl2 pH 4.3), 1 h", "result": "about 25 μM"}, {"measurement": "inhibition of root growth", "setting": "[4]; 2 μM AlCl3", "result": 50, "unit": "%"}, {"measurement": "inhibition of root growth", "setting": "[4]; 6 μM AlCl3", "result": "85-90%"}]}
